This is an account of results in ChEMBL document CHEMBL5518193, “Discovery of N-alkyl-N-benzyl thiazoles as novel TRPC antagonists for the treatment of glioblastoma multiforme” (Eur J Med Chem, 2024).

Data set [1] in a line: AUC (0 to infinity) in BALB/c mouse at 25 mg/kg, ip administered as liposome encapsulated form and measured upto 24 hrs by LC-MS/MS analysis. The class given is ADME, organism-based. The following applies: in vivo.
The nature of data set [2]: Apparent clearance in BALB/c mouse at 12.5 mg/kg, ip administered as liposome encapsulated form and measured upto 24 hrs by LC-MS/MS analysis. Format: ADME, organism-based. The following applies: in vivo, read-out: CL(app) (converted).
Data set [3] concerns A549. The data set is described as follows: Antiproliferative activity against human A549 cells assessed as reduction in cell viability incubated for 72 hrs by MTT assay. Format: functional, cell-based. The following applies: A549, 72 h. In general terms: Tetrazolium dyes change colour on reduction, which living cells bring about.
Data set [4] can be described thus: Tmax in BALB/c mouse at 12.5 mg/kg, ip administered as liposome encapsulated form measured upto 24 hrs by LC-MS/MS analysis. As to conditions: in vivo. The class given is ADME, organism-based.
Data set [5] in a line: Toxicity against BALB/c nude mouse xenografted with human U87 cells assessed as change in body weight at 12.5 to 50 mg/kg/day administered as liposome encapsulated form for 15 days. The class given is organism-based, U-87MG ATCC. The following applies: in vivo, 360 h, dose 12.5-50 mg/kg/day, time 15 day. On the technique in general: Xenograft models place foreign cells or tissue in a host animal.

The nature of data set [6]: Selectivity index, ratio of IC50 for human HCT-116 cells to IC50 for human U87 cells. The class given is functional.
Data set [7] in a line: Terminal half life in BALB/c mouse at 12.5 mg/kg, ip administered as liposome encapsulated form and measured upto 24 hrs by LC-MS/MS analysis. The class given is ADME, organism-based. As to conditions: in vivo, read-out: beta t1/2 (converted).
Data set [8] is described as follows: Toxicity against BALB/c nude mouse xenografted with human U87 cells assessed as mortality at 12.5 to 50 mg/kg/day administered as liposome encapsulated form for 15 days. Format: organism-based, U-87MG ATCC. As to conditions: in vivo, 360 h, dose 12.5-50 mg/kg/day, time 15 day.
The nature of data set [9]: Selectivity index, ratio of IC50 for human A549 cells to IC50 for human U87 cells. The class given is functional.
Data set [10] can be described thus: Apparent clearance in BALB/c mouse at 50 mg/kg, ip administered as liposome encapsulated form and measured upto 24 hrs by LC-MS/MS analysis. Format: ADME, organism-based. The following applies: in vivo, read-out: CL(app) (converted).
Data set [11] has as its system LNCaP. The data set is described as follows: Antiproliferative activity against human LNCaP cells assessed as reduction in cell viability incubated for 72 hrs by MTT assay. Format: functional, cell-based.
Data set [12] deals with T1, Short transient receptor potential channel 4 (Mus musculus, UniProt Q9QUQ5).
T1 sequence (Q9QUQ5 whole entry): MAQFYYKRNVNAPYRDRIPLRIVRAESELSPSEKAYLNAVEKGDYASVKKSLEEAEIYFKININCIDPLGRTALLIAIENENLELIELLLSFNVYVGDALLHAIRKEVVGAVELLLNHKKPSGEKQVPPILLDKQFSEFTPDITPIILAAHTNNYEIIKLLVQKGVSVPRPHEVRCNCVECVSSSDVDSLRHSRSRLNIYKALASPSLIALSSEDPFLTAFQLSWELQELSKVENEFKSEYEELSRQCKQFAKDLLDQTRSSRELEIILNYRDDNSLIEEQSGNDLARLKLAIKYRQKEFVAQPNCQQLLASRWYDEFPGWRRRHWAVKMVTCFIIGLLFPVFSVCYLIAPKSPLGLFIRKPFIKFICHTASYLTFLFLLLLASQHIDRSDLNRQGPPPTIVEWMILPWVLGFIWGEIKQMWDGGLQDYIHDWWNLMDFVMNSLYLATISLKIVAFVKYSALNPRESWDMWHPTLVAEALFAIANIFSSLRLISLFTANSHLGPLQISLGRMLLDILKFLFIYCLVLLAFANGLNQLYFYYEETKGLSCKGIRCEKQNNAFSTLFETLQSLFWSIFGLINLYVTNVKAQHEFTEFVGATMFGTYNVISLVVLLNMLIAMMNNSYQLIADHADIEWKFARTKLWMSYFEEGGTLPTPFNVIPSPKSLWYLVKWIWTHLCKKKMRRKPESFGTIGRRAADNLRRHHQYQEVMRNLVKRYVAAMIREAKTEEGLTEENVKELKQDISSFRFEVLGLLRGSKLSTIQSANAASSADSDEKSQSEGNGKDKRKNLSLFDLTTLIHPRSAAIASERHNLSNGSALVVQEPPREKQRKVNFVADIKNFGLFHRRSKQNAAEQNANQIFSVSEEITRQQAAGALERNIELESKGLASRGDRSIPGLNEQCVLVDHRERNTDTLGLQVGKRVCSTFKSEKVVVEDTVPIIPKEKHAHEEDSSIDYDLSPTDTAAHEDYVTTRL
The data set is described as follows: Antagonist activity at mouse TRPC4 stably expressed in HEK293 cells inhibition of calcium influx by calcium fluorescence assay. The class given is cell-based.

The nature of data set [13]: Cmax in BALB/c mouse at 25 mg/kg, ip administered as liposome encapsulated form and measured upto 24 hrs by LC-MS/MS analysis. The class given is ADME, organism-based. As to conditions: in vivo.
Data set [14] is described as follows: Selectivity index, ratio of IC50 for human MKN-45 cells to IC50 for human U87 cells. The class given is functional.
The nature of data set [15]: Terminal half life in BALB/c mouse at 25 mg/kg, ip administered as liposome encapsulated form and measured upto 24 hrs by LC-MS/MS analysis. Format: ADME, organism-based. The following applies: in vivo, read-out: beta t1/2 (converted).
Data set [16] can be described thus: Selectivity index, ratio of IC50 for human LNCaP cells to IC50 for human U87 cells. Format: functional.
Data set [17] concerns the target T2, Short transient receptor potential channel 3 (Homo sapiens, UniProt Q13507).
T2 sequence (Q13507 whole entry): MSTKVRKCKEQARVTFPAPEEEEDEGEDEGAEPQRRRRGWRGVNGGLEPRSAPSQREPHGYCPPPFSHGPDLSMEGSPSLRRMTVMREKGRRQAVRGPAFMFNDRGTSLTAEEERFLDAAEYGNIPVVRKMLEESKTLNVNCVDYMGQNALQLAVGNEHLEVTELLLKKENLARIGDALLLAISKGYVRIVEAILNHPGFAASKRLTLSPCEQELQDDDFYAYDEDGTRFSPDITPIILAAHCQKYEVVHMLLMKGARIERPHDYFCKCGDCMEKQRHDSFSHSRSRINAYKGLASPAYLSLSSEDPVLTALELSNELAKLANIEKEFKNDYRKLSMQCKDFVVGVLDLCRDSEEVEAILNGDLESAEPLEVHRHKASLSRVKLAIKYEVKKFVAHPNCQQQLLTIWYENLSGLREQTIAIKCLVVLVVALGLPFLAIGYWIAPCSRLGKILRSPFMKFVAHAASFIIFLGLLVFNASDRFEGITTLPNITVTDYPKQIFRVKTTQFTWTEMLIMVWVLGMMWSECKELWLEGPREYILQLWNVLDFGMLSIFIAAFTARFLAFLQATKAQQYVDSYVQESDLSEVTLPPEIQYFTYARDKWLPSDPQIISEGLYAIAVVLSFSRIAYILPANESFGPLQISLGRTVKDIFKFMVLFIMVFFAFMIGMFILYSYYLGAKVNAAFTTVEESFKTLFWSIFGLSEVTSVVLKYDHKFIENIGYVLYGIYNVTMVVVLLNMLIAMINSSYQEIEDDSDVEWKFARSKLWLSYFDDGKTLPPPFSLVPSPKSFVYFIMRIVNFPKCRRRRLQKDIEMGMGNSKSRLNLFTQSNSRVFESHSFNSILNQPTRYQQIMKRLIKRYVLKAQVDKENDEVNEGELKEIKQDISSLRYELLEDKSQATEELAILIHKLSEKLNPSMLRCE
The data set is described as follows: Antagonist activity at human TRPC3 stably expressed in HEK293 cells inhibition of calcium influx by calcium fluorescence assay. The class given is cell-based.

The AUC(0-inf) is the area under the concentration-time curve extrapolated to infinity. Usually IC50 stands for the point on the concentration scale where inhibition reaches its midpoint. One may read the Tmax as the time from dosing to the highest level. As a reminder, the Cmax is the highest concentration seen after dosing. In data set [1], `NCCN(Cc1ccc2ccccc2c1)c1nc(C(=O)Nc2ccc(O)cc2)cs1` registered an area under the curve AUC(0-inf) of 6920 ng·h/mL. In addition, the CL/F in [2] was 74.6 mL/min/kg; in data set [10], 49.6 mL/min/kg. Also, the concentration for half-maximal inhibition (IC50) in data set [3] was found to be 21.1 µM; in data set [11], 8.3 µM; in [12], 12.2 µM; in data set [17], 2400 nM. Moreover, the Tmax in [4] came to 4 h. Also, the Activity result in data set [5] and in data set [8] was “Non-Toxic” each time. For the same compound, the “Ratio IC50” value in [6], in data set [9], in [14] and in [16] was 2 each time. Also, the half-life in [7] is 408 min; in data set [15], 204 min. This compound showed a Cmax in [13] of 1220 ng/mL.
